Results published in patent US11912703B2, “6-azaindole compounds” (BRISTOL-MYERS SQUIBB COMPANY, priority 2017, dated 2024).
pIC50: −log10 of the molar value. Read-outs that look alike come from different tables or passages of the source.

Legend:
human TLR7 = human TLR7 (Homo sapiens (Human), UniProt Q9NYK1); assay: TLR7 inhibition reporter assay (HEK-Blue SEAP); format: cell-based; details: HEK-Blue cells overexpressing human TLR7, gardiquimod 7.5 μM stimulation
human TLR9 = human TLR9 (Homo sapiens (Human), UniProt Q9NR96); assay: TLR9 inhibition reporter assay (HEK-Blue SEAP);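 also: SEAP driven by IFN-β minimal promoter carrying five NF-κB and AP-1 sites, 22 h at 37 °C, compounds 0.05 nM–50 µM, inhibition scaled between agonist-plus-DMSO and reference-inhibitor wells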
human TLR8 = human TLR8 (Homo sapiens (Human), UniProt Q9NR97); assay: TLR8 inhibition reporter assay (HEK-Blue SEAP);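 also: SEAP driven by IFN-β minimal promoter with five NF-κB and AP-1 sites, compounds tested 0.05 nM to 50 µM, 22 h incubation, inhibition relative to agonist plus DMSO wells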
Description: HEK-Blue™-cells (Invivogen) overexpressing human TLR7, TLR8 or TLR9 receptors were used for screening inhibitors of these receptors using an inducible SEAP (secreted embryonic alkaline phosphatase) reporter gene under the control of the IFN-β minimal promoter fused to five NF-κB and AP-1-binding sites. Briefly, cells are seeded into Greiner 384 well plates (15000 cells per well for TLR7, 20,000 for TLR8 and 25,000 for TLR9) and then treated with test compounds in DMSO to yield a final dose response concentration range of 0.05 nM-50 μM. After a 30 minute compound pre-treatment at room temperature, the cells are then stimulated with a TLR7 ligand (gardiquimod at a final concentration of 7.5 μM), TLR8 ligand (R848 at a final concentration of 15.9 μM) or TLR9 ligand (ODN2006 at a final concentration of 5 nM) to activate NF-κB and AP-1 which induce the production of SEAP. After a 22 hour incubation at 37° C., 500 CO2, SEAP levels are determined with the addition of HEK-Blue™ Detection reagent (Invivogen), a cell culture medium that allows for detection of SEAP, according to manufacturer's specifications.

[1] = read-out: TLR9 IC50; HEK-Blue cells overexpressing human TLR9; ODN2006 5 nM stimulation; SEAP reporter
[2] = read-out: TLR8 IC50; HEK-Blue cells overexpressing human TLR8; R848 15.9 μM stimulation; SEAP reporter
[3] = read-out: TLR9 IC50; HEK-Blue cells overexpressing human TLR9, ODN2006 5 nM stimulation, SEAP reporter
[4] = read-out: TLR8 IC50; HEK-Blue cells overexpressing human TLR8, R848 15.9 μM stimulation, SEAP reporter

Chain of human TLR8 (Q9NR97 27-1041): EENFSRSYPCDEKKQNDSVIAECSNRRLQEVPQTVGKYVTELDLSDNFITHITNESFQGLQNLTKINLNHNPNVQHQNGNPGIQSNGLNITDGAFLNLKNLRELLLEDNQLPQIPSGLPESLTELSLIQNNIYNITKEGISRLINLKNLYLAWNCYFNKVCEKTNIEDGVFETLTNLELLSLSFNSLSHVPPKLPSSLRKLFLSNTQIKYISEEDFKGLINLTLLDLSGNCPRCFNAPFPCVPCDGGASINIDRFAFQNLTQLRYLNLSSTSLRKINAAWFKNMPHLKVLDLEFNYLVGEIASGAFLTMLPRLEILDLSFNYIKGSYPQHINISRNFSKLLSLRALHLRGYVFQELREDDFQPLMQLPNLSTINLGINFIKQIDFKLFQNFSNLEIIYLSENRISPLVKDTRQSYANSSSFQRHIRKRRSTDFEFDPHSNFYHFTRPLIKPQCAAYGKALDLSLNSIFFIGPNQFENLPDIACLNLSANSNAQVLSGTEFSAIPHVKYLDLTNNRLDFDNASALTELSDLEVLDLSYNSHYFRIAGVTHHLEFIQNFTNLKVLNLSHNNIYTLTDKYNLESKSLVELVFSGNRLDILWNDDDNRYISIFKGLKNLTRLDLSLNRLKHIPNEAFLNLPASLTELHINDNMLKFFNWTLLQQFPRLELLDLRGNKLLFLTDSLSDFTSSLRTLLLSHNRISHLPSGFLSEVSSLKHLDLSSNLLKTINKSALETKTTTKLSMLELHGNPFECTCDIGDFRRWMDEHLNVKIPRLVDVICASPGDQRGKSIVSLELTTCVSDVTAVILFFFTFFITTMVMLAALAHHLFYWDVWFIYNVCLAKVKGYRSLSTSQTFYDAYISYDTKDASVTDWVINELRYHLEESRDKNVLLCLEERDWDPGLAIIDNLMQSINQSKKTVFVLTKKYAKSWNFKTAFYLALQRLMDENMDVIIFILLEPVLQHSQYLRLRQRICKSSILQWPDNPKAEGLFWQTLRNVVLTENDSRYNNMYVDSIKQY
Chain of human TLR9 (Q9NR96 26-1032): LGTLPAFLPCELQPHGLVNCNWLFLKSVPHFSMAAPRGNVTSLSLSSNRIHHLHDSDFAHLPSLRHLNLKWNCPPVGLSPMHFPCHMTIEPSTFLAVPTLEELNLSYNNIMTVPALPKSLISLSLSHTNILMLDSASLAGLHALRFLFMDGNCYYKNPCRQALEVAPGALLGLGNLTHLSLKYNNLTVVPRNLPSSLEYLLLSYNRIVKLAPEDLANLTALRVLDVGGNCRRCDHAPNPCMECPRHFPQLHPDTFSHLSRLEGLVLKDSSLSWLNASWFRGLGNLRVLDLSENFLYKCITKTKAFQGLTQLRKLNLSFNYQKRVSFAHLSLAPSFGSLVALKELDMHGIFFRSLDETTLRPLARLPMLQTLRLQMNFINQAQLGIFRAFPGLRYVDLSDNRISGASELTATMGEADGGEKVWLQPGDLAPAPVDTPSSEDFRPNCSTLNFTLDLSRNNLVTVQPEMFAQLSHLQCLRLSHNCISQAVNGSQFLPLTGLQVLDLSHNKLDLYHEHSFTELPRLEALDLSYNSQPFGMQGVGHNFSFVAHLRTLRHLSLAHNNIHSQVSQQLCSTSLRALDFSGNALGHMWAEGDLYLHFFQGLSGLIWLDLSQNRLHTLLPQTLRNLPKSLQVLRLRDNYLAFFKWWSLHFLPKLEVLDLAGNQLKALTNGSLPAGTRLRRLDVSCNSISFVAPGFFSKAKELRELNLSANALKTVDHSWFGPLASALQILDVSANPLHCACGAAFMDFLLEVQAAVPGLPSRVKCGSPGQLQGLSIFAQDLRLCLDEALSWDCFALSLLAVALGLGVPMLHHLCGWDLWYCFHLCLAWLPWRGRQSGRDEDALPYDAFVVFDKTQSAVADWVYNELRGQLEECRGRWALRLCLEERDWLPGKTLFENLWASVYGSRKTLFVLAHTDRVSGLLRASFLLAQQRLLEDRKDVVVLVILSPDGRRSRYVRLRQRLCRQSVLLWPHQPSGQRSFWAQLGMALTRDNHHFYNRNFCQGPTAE
Chain of human TLR7 (Q9NYK1 27-1049): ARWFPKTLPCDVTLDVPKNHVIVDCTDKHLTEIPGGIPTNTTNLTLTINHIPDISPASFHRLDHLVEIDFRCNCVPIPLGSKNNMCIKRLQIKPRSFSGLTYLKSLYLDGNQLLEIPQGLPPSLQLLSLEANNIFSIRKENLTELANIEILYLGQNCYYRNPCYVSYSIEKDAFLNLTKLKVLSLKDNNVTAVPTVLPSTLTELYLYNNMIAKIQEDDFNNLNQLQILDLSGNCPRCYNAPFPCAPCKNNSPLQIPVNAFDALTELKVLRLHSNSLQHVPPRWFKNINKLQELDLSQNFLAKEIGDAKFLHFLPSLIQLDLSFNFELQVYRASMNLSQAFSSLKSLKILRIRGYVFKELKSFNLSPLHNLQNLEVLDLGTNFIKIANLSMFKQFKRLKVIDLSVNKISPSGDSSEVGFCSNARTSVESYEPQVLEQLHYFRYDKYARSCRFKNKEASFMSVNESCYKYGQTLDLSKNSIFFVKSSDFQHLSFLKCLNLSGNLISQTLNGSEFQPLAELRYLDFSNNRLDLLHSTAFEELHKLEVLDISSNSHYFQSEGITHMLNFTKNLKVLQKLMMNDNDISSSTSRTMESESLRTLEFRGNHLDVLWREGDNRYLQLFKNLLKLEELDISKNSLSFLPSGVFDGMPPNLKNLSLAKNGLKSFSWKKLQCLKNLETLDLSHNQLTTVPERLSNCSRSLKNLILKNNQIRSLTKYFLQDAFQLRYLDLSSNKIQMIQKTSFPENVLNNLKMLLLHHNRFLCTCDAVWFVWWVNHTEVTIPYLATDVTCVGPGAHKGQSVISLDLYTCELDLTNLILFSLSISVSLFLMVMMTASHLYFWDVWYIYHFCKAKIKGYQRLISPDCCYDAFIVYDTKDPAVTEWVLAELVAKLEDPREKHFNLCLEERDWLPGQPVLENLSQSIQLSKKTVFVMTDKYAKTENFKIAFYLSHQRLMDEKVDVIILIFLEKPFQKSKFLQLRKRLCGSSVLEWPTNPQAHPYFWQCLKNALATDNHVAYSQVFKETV

pIC50 (human TLR7) | pIC50 (human TLR9; [1]) | pIC50 (human TLR8; [2]) | pIC50 (human TLR9; [3]) | pIC50 (human TLR8; [4]) | SMILES
8.57 |  |  | 5.72 | 9.09 | COc1cc(-c2[nH]c3cnc(N4CCN(C5CCN(C(C)C)CC5)CC4)c(F)c3c2C(C)C)cn2ncnc12 [Example 388]
7.46 |  |  | 6.07 | 7.43 | COc1cc(-c2[nH]c3cnc(C4CCC(NCC5(C)COC5)C4)cc3c2C(C)C)cn2ncnc12 (stereo not drawn) [Example 275]
6.99 |  |  | < 4.30 | 8.57 | Cc1c(-c2[nH]c3cnc(N4CCN(CC(C)(C)C)CC4)c(F)c3c2C(C)C)cn2ncnc2c1C [Example 432]
8.80 | 4.86 | 9.27 |  |  | Cc1c(-c2[nH]c3cnc(N4CCN(CC5CC5)C[C@H]4C)c(F)c3c2C(C)C)cn2ncnc2c1C [Example 459]
7.32 |  |  | 4.36 | 7.52 | Cc1c(-c2[nH]c3cnc(N4CC5(CN(CC#N)C5)C4)c(F)c3c2C(C)C)cn2ncnc2c1C [Example 397]
7.59 |  |  | < 4.30 | 8.17 | COc1cc(-c2[nH]c3cnc(N4CCN(C5CCCOC5)CC4)c(F)c3c2C(C)C)cn2ncnc12 (single isomer, unassigned) [Example 386]
7.59 |  |  | < 4.30 | 8.28 | Cc1c(-c2[nH]c3cnc(N4CCN(CCS(C)(=O)=O)CC4)c(C)c3c2C(C)C)cn2ncnc2c1C [Example 415]
8.11 |  |  | 6.94 | 8.92 | COc1cc(-c2[nH]c3cnc(C4CCC(NCC5(C)COC5)C4)cc3c2C(C)C)cn2ncnc12 (stereo not drawn) [Example 276]
7.77 |  |  | 5.14 | < 5.51 | COc1cc(-c2[nH]c3cnc(N4CC5(CN(CC6CCC6)C5)C4)c(F)c3c2C(C)C)cn2ncnc12 [Example 375]
7.74 |  |  | < 4.30 | 7.68 | COc1cc(-c2[nH]c3cnc(N4CCN(CC(=O)N(C)C)C[C@H]4C)c(F)c3c2C(C)C)cn2ncnc12 [Example 446]
8.27 |  |  | 4.37 | 9.23 | Cc1c(-c2[nH]c3cnc(N4CCN(CC(=O)N5CCOCC5)CC4)c(F)c3c2C(C)C)cn2ncnc2c1C [Example 423]
8.07 |  |  | 6.04 | 6.94 | COc1cc(-c2[nH]c3cnc(C4CCNCC4)cc3c2C(C)C)cn2ncnc12 [Example 312]
8.35 |  |  | < 4.30 | 7.74 | COc1cc(-c2[nH]c3cnc(N4CCN(C5COC5)CC4)c(F)c3c2C(C)C)cn2ncnc12 [Example 382]
7.89 | 4.32 | 8.46 |  |  | Cc1c(-c2[nH]c3cnc(N4CCN(CC(=O)N5CCOCC5)C[C@H]4C)c(F)c3c2C(C)C)cn2ncnc2c1C [Example 469]
8.57 |  |  | 5.27 | 9.51 | COc1cc(-c2[nH]c3cnc(N4CCN(CC5CCOCC5)CC4)c(F)c3c2C(C)C)cn2ncnc12 [Example 383]
8.37 |  |  | 5.43 | 8.82 | COc1cc(-c2[nH]c3cnc(N4CCC(N(C)C5COC5)CC4)cc3c2C(C)C)cn2ncnc12 [Example 314]
8.07 |  |  | 6.42 | 7.80 | COc1cc(-c2[nH]c3cnc(C4CCC(NC5COC5)C4)cc3c2C(C)C)cn2ncnc12 (stereo not drawn) [Example 273]
8.39 |  |  | 4.38 | 8.85 | COc1cc(-c2[nH]c3cnc(N4CCN(CC5(C)COC5)CC4)c(F)c3c2C(C)C)cn2ncnc12 [Example 385]
8.15 |  |  | 6.11 | 7.77 | Cc1c(-c2[nH]c3cnc(C4CCC(NC5CCOC5)CC4)cc3c2C(C)C)cn2ncnc2c1C (stereo not drawn) [Example 327]
7.89 |  |  | < 4.30 | 7.77 | Cc1c(-c2[nH]c3cnc(N4CCN(S(C)(=O)=O)CC4)c(F)c3c2C(C)C)cn2ncnc2c1C [Example 425]
8.49 | 4.66 | 8.60 |  |  | Cc1c(-c2[nH]c3cnc(N4CCN(C5COC5)C[C@H]4C)c(F)c3c2C(C)C)cn2ncnc2c1C [Example 457]
7.43 |  |  | < 4.30 | 6.77 | COc1cc(-c2[nH]c3cnc(N4CCN(CC(F)(F)F)C[C@H]4C)c(F)c3c2C(C)C)cn2ncnc12 [Example 449]
8.12 |  |  | 6.19 | 8.13 | CNC(=O)CNC1CCN(c2cc3c(C(C)C)c(-c4cc(OC)c5ncnn5c4)[nH]c3cn2)CC1 [Example 329]
8.52 |  |  | 6.31 | 8.31 | CNCC(=O)N1CCN(c2ncc3[nH]c(-c4cc(OC)c5ncnn5c4)c(C(C)C)c3c2Cl)CC1 [Example 291]

Further lines, the compound ahead of its results:

SMILES | pIC50 (human TLR7) | pIC50 (human TLR9; [1]) | pIC50 (human TLR8; [2]) | pIC50 (human TLR9; [3]) | pIC50 (human TLR8; [4])
Cc1cc(-c2[nH]c3cnc(N4CCC(NC(C)C)CC4)c(F)c3c2C(C)C)cn2ncnc12 [Example 219] | 9.07 | 5.72 | 9.25 |  | 
Cc1c(-c2[nH]c3cnc(N4CCC(NC5COC5)CC4)c(F)c3c2C(C)C)cn2ncnc2c1C [Example 146] | 8.96 |  |  | 5.18 | 9.34
CNC(=O)CN(C)C1CCN(c2ncc3[nH]c(-c4cc(OC)c5ncnn5c4)c(C(C)C)c3c2F)CC1 [Example 221] | 8.96 | 5.59 | 9.15 |  | 
COc1cc(-c2[nH]c3cnc(C4CCC(NCC(C)(C)C)C4)cc3c2C(C)C)cn2ncnc12 (stereo not drawn) [Example 210] | 7.47 |  |  | 5.97 | 8.18
Cc1c(-c2[nH]c3cnc(C4CCC(N5CC6(COC6)C5)CC4)c(C)c3c2C(C)C)cn2ncnc2c1C (stereo not drawn) [Example 57] | 8.31 |  |  | 6.17 | 7.72
COc1cc(-c2[nH]c3cnc(C4CCC(NC5COC5)CC4)c(C)c3c2C(C)C)cn2ncnc12 (stereo not drawn) [Example 243] | 9.10 |  |  | 6.37 | 8.32
COc1cc(-c2[nH]c3cnc(C4CCC(NCC(C)(C)OC)C4)cc3c2C(C)C)cn2ncnc12 (stereo not drawn) [Example 179] | 7.70 |  |  | 6.31 | 8.15
COc1cc(-c2[nH]c3cnc(C4CCN(C5COC5)CC4)c(F)c3c2C(C)C)cn2ncnc12 [Example 38] | 8.55 |  |  | 4.88 | 7.92
COc1cc(-c2[nH]c3cnc(N4CCC(NC(C)C)CC4)c(F)c3c2C(C)C)cn2ncnc12 [Example 157] | 9.10 |  |  | 5.38 | 9.29
COc1cc(-c2[nH]c3cnc(C4CCC(N(C)C(C)C)CC4)c(F)c3c2C(C)C)cn2ncnc12 (stereo not drawn) [Example 76] | 9.24 |  |  | 6.02 | 8.42
Cc1c(-c2[nH]c3cnc(C4CCC(NCC(C)(C)C)CC4)c(C)c3c2C(C)C)cn2ncnc2c1C (stereo not drawn) [Example 247] | 7.80 |  |  | 6.14 | 8.00
Cc1c(-c2[nH]c3cnc(C4CCC(NC5CCOCC5)CC4)c(C)c3c2C(C)C)cn2ncnc2c1C (stereo not drawn) [Example 119] | 8.09 |  |  | 6.25 | 7.96
COc1cc(-c2[nH]c3cnc(C4CCC(NCC(C)(C)F)CC4)c(C)c3c2C(C)C)cn2ncnc12 (stereo not drawn) [Example 244] | 8.05 |  |  | 6.23 | 7.80
COc1cc(-c2[nH]c3cnc(C4CCN(C5COC5)CC4)c(C)c3c2C(C)C)cn2ncnc12 [Example 16] | 8.33 |  |  | 5.89 | 7.59
Cc1c(N2CCC(NC3COC3)CC2)ncc2[nH]c(-c3cc(C)c4ncnn4c3)c(C(C)C)c12 [Example 140] | 9.28 |  |  | 5.52 | 8.85
COc1cc(-c2[nH]c3cnc(C4CCN(CC(F)(F)F)CC4)c(F)c3c2C(C)C)cn2ncnc12 [Example 127] | 7.33 |  |  | < 4.30 | 6.82
COc1cc(-c2[nH]c3cnc(N4CCC(N5CCC5)CC4)c(C)c3c2C(C)C)cn2ncnc12 [Example 87] | 9.48 |  |  | 6.15 | 9.00
COc1cc(-c2[nH]c3cnc(C4CCC(NC[C@@H](F)C(C)(C)O)CC4)c(C)c3c2C(C)C)cn2ncnc12 (stereo partly drawn) [Example 89] | 8.19 |  |  | 6.36 | 8.31
COc1cc(-c2[nH]c3cnc(N4CCC(N(C)C5COC5)CC4)c(F)c3c2C(C)C)cn2ncnc12 [Example 104] | 8.44 |  |  | 5.28 | 8.77
Cc1cc(-c2[nH]c3cnc(N4CCC(N(C)C5COC5)CC4)c(F)c3c2C(C)C)cn2ncnc12 [Example 130] | 8.89 |  |  | 5.28 | 9.12
Cc1cc(-c2[nH]c3cnc(N4CCC(N(C)CC(F)F)CC4)c(F)c3c2C(C)C)cn2ncnc12 [Example 257] | 8.28 |  |  | 4.44 | 8.19
COc1cc(-c2[nH]c3cnc(C4CCC(NC5COC5)CC4)c(F)c3c2C(C)C)cn2ncnc12 (stereo not drawn) [Example 223] | 8.57 | 5.95 | 8.62 |  | 
CNC(=O)CN1CCC(c2cc3c(C(C)C)c(-c4cn5ncnc5c(C)c4C)[nH]c3cn2)CC1 [Example 26] | 8.51 |  |  | 6.20 | 8.16
COc1cc(-c2[nH]c3cnc(N4CCC(NC[C@@H](F)C(C)(C)O)CC4)c(C)c3c2C(C)C)cn2ncnc12 [Example 64] | 8.38 |  |  | 5.55 | 8.82
COc1cc(-c2[nH]c3cnc(N4CCC(NC5COC5)CC4)c(F)c3c2C(C)C)cn2ncnc12 [Example 42, 1-(4-fluoro-3-isopropyl-2-(8-methoxy-[1,2,4]triazolo[1,5-a]pyridin-6-yl)-1H-pyrrolo[2,3-c]pyridin-5-yl)-N-(oxetan-3-yl)piperidin-4-amine] | 8.80 |  |  | 5.04 | 9.23
